Read-outs that look alike come from different tables or passages of the source.
Assays:
[1] = tested on: platelets (platelet rich plasma); assay: Inhibition of platelet aggregation in platelet rich plasma (Chrono-log aggregometer); assay type: cell-based; settings: human PRP; for inhibition at 250 µM: compound concentration 250 μM; for inhibition at 100 µM: compound concentration 100 μM
Experimental: Platelet poor plasma (PPP) was obtained by centrifuging the remainder of the sample after the platelets were removed at 800×g for about 10 minutes. The PRP was adjusted to a count of 280×10^9/L using a mixture of PRP and PPP. The platelets (200 μL) were incubated with the test compounds (25 μL) adjusted to various concentrations ([…]) for about 30 minutes at room temperature (approximate final platelet count in the incubation mixture of 250×10^9/L). The samples were incubated for about 3 minutes at about 37° C., and then transferred to the mixing wells of a Chrono-log 4 channel aggregometer (Chrono-log Corp., Havertown, Pa.). After baselines were established, the agonist (25 μL of 40 μM ADP (Sigma, St. Louis, Mo.) or 25 μL of 50 μg/mL and 10 μg/mL collagen (Helena Laboratories, Beaumont, Tex.) or 25 μL of 120 μM thrombin receptor activating peptide (TRAP) (Sigma)) was then added. Aggregation was monitored for 5 minutes at 37° C. with stirring (1000 rpm). The amplitude and slope of each tracing were calculated to determine the amount of aggregation. Control samples were performed using only solvent. The % reduction in aggregation was calculated for each sample compared to the proper solvent control.

[2] = molecular target: T1, human Factor Xa (fXa) (Homo sapiens, UniProt P00742); assay: Inhibition of serine protease activity, factor Xa, chromogenic substrate Pefachrome Xa; assay type: biochemical; settings: 2 nM human Factor Xa, 300 μM substrate, pH 7.5
T1 construct: purchased Haematologic Technologies Inc. (Essex Junction, Vt.)
Experimental: (§1) The enzymes factor Xa (fXa), thrombin (factor IIa or fIIa), and trypsin were purchased from Haematologic Technologies Inc. (Essex Junction, Vt.). The substrates Pefachromes Xa, Th, and Try were purchased from Centerchem Inc. (Stamford, Conn.). Varying concentrations of the sulfonamide compounds were incubated for 30 min at room temperature with purified activated human enzyme in the appropriate buffer. Various concentrations of the corresponding synthetic substrate were added, and activity was measured at 37° C. by monitoring absorbance at 405 nm for 15 min with a Flurostar Optima plate reader. […] For controls, the appropriate percentage of solvent was used instead of test compound. The specific activity (ΔA405/min/nM protein), and the percent activity was calculated for each data point. The IC50 was calculated by linear regression of log[test compound] vs. % activity. The enzyme activity of the sulfonamide compound was determined using the Enzyme Kinetics Module of Sigmaplot 8.0 (SPSS Inc.)
The final concentration of human Factor Xa was 2 nM in a Tris/NaCl buffer (pH 7.5) containing 0.25% (w/v) polyethylene glycol (MW 8000). The substrate employed was Pefachrome Xa.

[3] = molecular target: T2, human thrombin (factor IIa, fIIa) (Homo sapiens, UniProt P00734); assay: Inhibition of serine protease activity, thrombin, chromogenic substrate Pefachrome Th; assay type: biochemical; settings: 2 nM human thrombin, 300 μM substrate, pH 8.3
T2 construct: purchased Haematologic Technologies Inc. (Essex Junction, Vt.)
Experimental: as §1
The final concentration of human thrombin was 2 nM in a Tris/NaCl buffer (pH 8.3) containing 0.125% (w/v) bovine serum albumin. The substrate used was Pefachrome Th.

[4] = tested on: human trypsin; assay: Inhibition of serine protease activity, trypsin, chromogenic substrate Pefachrome Try; assay type: biochemical; settings: 2 nM human trypsin, 300 μM substrate, pH 7.5
Experimental: as §1
The final concentration of human trypsin was 2 nM in a Tris/NaCl buffer (pH 7.5) containing 0.25% (w/v) bovine serum albumin and 20 μM CaCl2. The substrate used was Pefachrome Try.

[5] = tested on: platelets (platelet rich plasma); assay: Inhibition of platelet aggregation in platelet rich plasma (Chrono-log aggregometer); assay type: cell-based; settings: compound concentration 500 μM, human PRP
[6] = agonist ADP 4 μM, read-out: % Reduction in Aggregation, ADP (4 μM)
[7] = agonist TRAP 12 μM, read-out: % Reduction in Aggregation, TRAP (12 μM)
[8] = agonist collagen 1 μg/mL, read-out: % Reduction in Aggregation, Collagen (1 μg/mL)
[9] = agonist collagen 5 μg/mL, read-out: % Reduction in Aggregation, Collagen (5 μg/mL)

T1 sequence (P00742 235-488 limits assumed): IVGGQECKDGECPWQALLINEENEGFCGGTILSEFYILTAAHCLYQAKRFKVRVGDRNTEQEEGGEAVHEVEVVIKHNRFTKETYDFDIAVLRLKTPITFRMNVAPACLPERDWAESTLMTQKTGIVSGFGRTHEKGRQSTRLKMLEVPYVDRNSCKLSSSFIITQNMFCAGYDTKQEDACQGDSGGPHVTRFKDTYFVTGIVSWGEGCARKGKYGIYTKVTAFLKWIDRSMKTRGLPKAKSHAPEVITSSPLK
T1 sequence (P00742 41-179 partner limits assumed): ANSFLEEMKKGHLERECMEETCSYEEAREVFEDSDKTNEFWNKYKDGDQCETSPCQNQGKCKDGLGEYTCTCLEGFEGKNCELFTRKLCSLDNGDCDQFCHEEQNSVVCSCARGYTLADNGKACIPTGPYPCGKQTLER

IC50 [2] | IC50 [3] | IC50 [4] | Structure (SMILES) | inhibition at 250 µM [1, 6] | inhibition at 250 µM [1, 7] | inhibition at 250 µM [1, 8] | inhibition at 250 µM [1, 9] | also measured
> 1000 µM | > 1000 µM | > 1000 µM | Cc1ncc(CNc2ccc(-c3ccccc3S(N)(=O)=O)cc2)c(CO)c1O [Compound 3, 4′-[(5-Hydroxy-4-hydroxymethyl-6-methyl-pyridin-3-ylmethyl)-amino]-biphenyl-2-sulfonic acid amide] | 0% | 6% | 0% | 5% | –
329 µM | > 1000 µM | > 1000 µM | Cc1ncc(CNc2ccc(-c3ccccc3S(=O)(=O)NC(C)(C)C)cc2)c(CO)c1O [Compound 2, 4′-[(5-Hydroxy-4-hydroxymethyl-6-methyl-pyridin-3-ylmethyl) -amino]-biphenyl-2-sulfonic acid tert-butylamide] | – | – | – | – | –
11 µM | > 1000 µM | 11 µM | Cc1ncc(CNc2ccc(-c3ccccc3S(N)(=O)=O)cn2)c(CO)c1OCc1cccc(C(=N)N)c1 [Compound 16] | 3% | 1.3% | 14% | 0% | –
15 µM | 862 µM | 12 µM | Cc1ncc(CNc2ccc(-c3ccccc3S(N)(=O)=O)cc2)c(CO)c1OCc1cccc(C(=N)N)c1 [Compound 14] | 10% | 9% | 15% | 5% | –
326 µM | > 1000 µM | > 1000 µM | Cc1ncc(CNc2cccc(-c3ccccc3S(N)(=O)=O)c2)c(CO)c1O [Compound 21, 3′-[(5-Hydroxy-4-hydroxymethyl-6-methyl-pyridin-3-ylmethyl)-amino]-biphenyl-2-sulfonic acid amide] | 14% | 0% | 4% | 0% | –
> 1000 µM | > 1000 µM | > 1000 µM | Cc1ncc(CO)c(CNc2ccc(-c3ccccc3S(N)(=O)=O)cc2)c1O [Compound 8] | – | – | – | – | –
17 µM | 476 µM | 3 µM | Cc1ncc(CO)c(CNc2cccc(-c3ccccc3S(N)(=O)=O)c2)c1OCc1ccc(C(=N)N)cc1 [Compound 28, 4-{5-Hydroxymethyl-2-methyl-4-[(2′-sulfamoyl-biphenyl-3-ylamino)-methyl]-pyridin-3-yloxymethyl}-benzamidine] | 26% | 11% | 10% | 15% | –
– | > 1000 µM | > 1000 µM | Cc1ncc(CO)c(CNc2cccc(-c3ccccc3S(N)(=O)=O)c2)c1O [Compound 32, 3′-[(3-Hydroxy-5-hydroxymethyl-2-methyl-pyridin-4-ylmethyl)-amino]-biphenyl-2-sulfoniamide] | – | – | – | – | –
29 µM | > 1000 µM | 4 µM | Cc1ncc(CNc2ccc(-c3ccc(C(=N)N)cc3)cc2)c(CO)c1O [Compound 34, reference compound] | 63% | 93% | 41% | 1% | –
5 µM | 97 µM | 24 µM | Cc1ncc(CNC(=O)c2ccc(-c3ccccc3S(N)(=O)=O)cc2)c(CO)c1OCc1cccc(C(=N)N)c1 [Compound 23] | – | – | – | – | –
197 µM | > 1000 µM | > 1000 µM | Cc1ncc(CO)c(CNc2ccc(-c3ccccc3S(=O)(=O)NC(C)(C)C)cc2)c1O [Compound 7, 4′-[(3-Hydroxy-5-hydroxymethyl-2-methyl-pyridin-4-ylmethyl)-amino]-biphenyl-2-sulfonic acid tert-butylamide] | – | – | – | – | –
362 µM | > 1000 µM | > 1000 µM | Cc1ncc(CNC(=O)c2ccc(-c3ccccc3S(=O)(=O)NC(C)(C)C)cc2)c(CO)c1O [Compound 5, 2′-tert-Butylsulfamoyl-biphenyl-4-carboxylic acid (5-hydroxy-4-hydroxymethyl-6-methyl-pyridin-3-ylmethyl)-amide] | – | – | – | – | –
105 µM | 300 µM | 18 µM | Cc1ncc(CNc2ccc(C(=N)N)cc2)c(CO)c1O [Compound 33, reference compound] | – | – | – | – | inhibition at 500 µM ([1]; agonist collagen 1 μg/mL, compound concentration 500 μM, read-out: % Reduction in Aggregation, Collagen (1 μg/mL)): 5%; inhibition at 500 µM [5, 6]: 4%; inhibition at 500 µM [5, 7]: 1%; inhibition at 500 µM [5, 9]: 15%
306 µM | > 1000 µM | > 1000 µM | Cc1ncc(CNC(=O)c2ccc(-c3ccccc3S(N)(=O)=O)cc2)c(CO)c1O [Compound 6, 2′-Sulfamoyl-biphenyl-4-carboxylic acid (5-hydroxy-4-hydroxymethyl-6-methyl-pyridin-3-ylmethyl)-amide] | 0% | 1% | 5% | 0% | –
18 µM | 171 µM | 4 µM | Cc1ncc(CO)c(CNc2ccc(-c3ccccc3S(N)(=O)=O)cc2F)c1OCc1ccc(C(=N)N)cc1 [Compound 30, 4-{4-[(3-Fluoro-2′-sulfamoyl-biphenyl-4-ylamino)-methyl]-5-hydroxymethyl-2-methyl-pyridin-3-yloxymethyl}-benzamidine] | – | – | – | – | inhibition at 100 µM [1, 6]: 23%; inhibition at 100 µM [1, 7]: 57%; inhibition at 100 µM [1, 8]: 57%; inhibition at 100 µM [1, 9]: 19%
4 µM | > 1000 µM | 15 µM | Cc1ncc(CO)c(CNc2ccc(-c3ccccc3S(N)(=O)=O)cc2)c1OCc1cccc(C(=N)N)c1 [Compound 25, 3-{5-Hydroxymethyl-2-methyl-4-[(2′-sulfamoyl-biphenyl-4-ylamino)-methyl]-pyridin-3-yloxymethyl}-benzamidine] | – | – | – | – | –

Structure (SMILES) | IC50 [2] | IC50 [3] | IC50 [4] | inhibition at 250 µM [1, 6] | inhibition at 250 µM [1, 7] | inhibition at 250 µM [1, 8] | inhibition at 250 µM [1, 9] | also measured
Cc1ncc(CNc2ccc(-c3ccccc3S(N)(=O)=O)cn2)c(CO)c1O [Compound 31, 2-{6-[(5-Hydroxy-4-hydroxymethyl-6-methyl-pyridin-3-ylmethyl)-amino]-pyridin-3-yl}-benzenesulfonamide] | > 1000 µM | > 1000 µM | > 1000 µM | – | – | – | – | –
